# From article PMC10629583, “Specific inhibition of an anticancer target, polo-like kinase 1, by allosterically dismantling its mechanism of substrate recognition” (Proceedings of the National Academy of Sciences of the …, 2023)
# “And” between values parts separate entries of the source, which are not always exact repeats. Equal entries are not always repeated.
# Assays:
# Plk2 PBD (PBD2) = biological target: T1, Plk2 PBD (PBD2) (Homo sapiens, UniProt Q9NYY3); assay: FP-based inhibition assay, PBD2; assay type: binding; conditions: bacterially expressed purified PBD, FITC-ligand 15 nM, PBD at EC85
# T1 construct: Purification of PBD2-His (355–685) (pKM3358) and its S652F mutant (pKM7980); His (C); made in house; host or cells: bacteria (E. coli)
# T1 sequence (Q9NYY3 355-685): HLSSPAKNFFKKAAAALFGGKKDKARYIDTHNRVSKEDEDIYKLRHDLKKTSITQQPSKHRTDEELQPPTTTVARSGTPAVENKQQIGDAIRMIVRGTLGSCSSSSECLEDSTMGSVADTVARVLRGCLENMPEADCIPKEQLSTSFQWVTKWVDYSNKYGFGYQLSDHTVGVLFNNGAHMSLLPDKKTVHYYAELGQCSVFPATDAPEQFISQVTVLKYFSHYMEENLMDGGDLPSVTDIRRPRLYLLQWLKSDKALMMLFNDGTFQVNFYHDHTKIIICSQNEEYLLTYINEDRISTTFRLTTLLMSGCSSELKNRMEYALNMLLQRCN
# Procedure: (§1) FP assays were carried out essentially as described previously ([35], [36]). […] All the samples were analyzed approximately 30 min after reaction in a 384-well format using the SpectraMax Paradigm multimode microplate detection platform (Molecular Devices). Data were analyzed after carrying out at least three independent experiments using GraphPad Prism software version 8.
# full-length Plk1 = biological target: T2, full-length Plk1 (Homo sapiens, UniProt P53350); assay: ELISA-based PBD1-binding inhibition assay; conditions: total lysates from HEK293A cells expressing full-length Plk1; biotinylated PBIP1 p-T78 peptide; read-out: Anti-Plk1 (full length) ELISA (IC50) Mean ± SEM
# T2 construct: expressed in transfected cells; host or cells: HEK293A cells infected with adenovirus; total lysate
# PBD2 S652F mutant = biological target: T3, PBD2 S652F mutant (Homo sapiens, UniProt Q9NYY3, S652F); assay: FP-based inhibition assay, PBD2 S652F; assay type: binding
# T3 construct: Purification of PBD2-His (355–685) (pKM3358) and its S652F mutant (pKM7980); His (C); made in house; host or cells: bacteria (E. coli)
# Procedure: FP assays were carried out essentially as described previously ([35], [36]). FITC-conjugated ligands (15 nM) were mixed with PBDs at their EC85 concentrations. All the samples were analyzed approximately 30 min after reaction in a 384-well format using the SpectraMax Paradigm multimode microplate detection platform (Molecular Devices). Data were analyzed after carrying out at least three independent experiments using GraphPad Prism software version 8.
# Fig. S3. Sequence alignment showing unique PBD2 S652 and PBD3 A612 residues and FP-based Allopole-A inhibition assays carried out with PBD2 S652F and PBD A612F mutants. (A) Human PBD1 (Uniprot ID: P53350), PBD2 (Uniprot ID: Q9NYY3), and PBD3 (15niport ID:Q9H4B4) sequences were aligned using Clustal Omega. The polo-box cap and L1 loop regions were adjusted based on the structural superposition of PBD1 (PDB ID: 3HIK), PBD2 (PDB_ID: 4RS6), and the AlphaFold model of PBD3 (https://alphafold.ebi.ac.uk). […]
# with PBD2 and MBP-PBD3 are working properly under our conditions. […] The Kd values for the indicated proteins were determined after extrapolating them from the binding curves as the […]
# concentration at which 50% of FITC-conjugated ligands (FITC-GPMQTSpTPKNG for PBD2 and FITC-GPLATSpTPKNG for PBD3) (5) are protein-bound. The EC85 values indicate the effective concentration of 85% of the maximal concentration calculated for each protein. […]
# Plk1 PBD (PBD1) = biological target: T4, Plk1 PBD (PBD1) (Homo sapiens, UniProt P53350); assay: FP-based inhibition assay, PBD1; assay type: binding
# T4 construct: constructs expressing PBD1 (residues 345–603) WT (pKM7650); His; TEV site (N); made in house; host or cells: bacteria (E. coli)
# Procedure: as §1
# [1] = system: Plk1 at centrosomes and kinetochores, HeLa cells; assay: Confocal imaging of Plk1 localization in HeLa cells; assay type: cell-based; conditions: 10 μM, 2 h
# Procedure: HeLa cells treated with either control DMSO or on 10 μM of Allopole for 2 h were immunostained using anti-Plk1 (F-8, sc-17783, Santa Cruz Biotechnologies), anti-Cep192 ([63]), and anti-CREST (#15-234, Antibodies Incorporated) antibodies and appropriate secondary antibodies, essentially as described previously ([62]). Samples were additionally stained with 2 µg/mL of Hoechst 33342 to reveal chromosomal morphologies. Images were captured using a Zeiss LSM 780 confocal microscope (Carl Zeiss Microscopy, LLC) equipped with plan-apochromat 40× (N.A. 1.3) and 63× (N.A. 1.4) oil-immersion objective lenses; a 34-channel GaAsP spectral detector; and 12-bit, 0.5-μm z-steps.
# Confocal images of unsaturated fluorescence signals were acquired under the same laser intensity at the 12-bit resolution. Fluorescence intensities for identifiable centrosome and kinetochore signals were quantified after the maximum-intensity projection of z-stacks using the Zeiss ZEN v2.1 software (Carl Zeiss Microscopy, LLC). Data were quantified from three independent experiments.
# [2] = system: Flag-Plk1 F559D interactions with p-PBIP1, p-Bub1, p-BubR1, p-Cdc25C; assay: Coimmunoprecipitation, HeLa cells expressing Flag-Plk1 F559D; assay type: cell-based; conditions: 20 μM for 2 h, nocodazole + okadaic acid
# Procedure: For coimmunoprecipitation analyses shown in Figs. 1C and 4F, HeLa cells stably expressing PCMV-Flag-Plk1 WT (pKM3863) (Fig. 1C) and its respective F559D mutant (pKM7979) (Fig. 4F) were generated using a lentiviral expression system. Prior to harvest, the cells were treated with 600 nM of nocodazole and 300 nM of okadaic acid (OA) for 16 h and 1.5 h, respectively, to enrich the level of phosphorylated proteins and additionally treated with either control DMSO or 20 μM of Allopole for 2 h. Immunoprecipitation was carried out essentially as described previously ([49]) in TBSN buffer [20 mM Tris–Cl (pH 8.0), 150 mM NaCl, 0.5% NP-40, 5 mM EGTA, 2 mM MgCl2, 1.5 mM EDTA, 2 mM DTT, 20 mM p-nitrophenyl phosphate (PNPP), and protease inhibitor cocktail (Roche)] using anti-Flag antibody (Sigma-Aldrich). Immunoprecipitates were separated by sodium dodecyl sulfate–polyacrylamide gel electrophoresis (SDS-PAGE) and then immunoblotted according to standard procedures using an enhanced chemiluminescence detection system (Thermo Fisher Scientific). The antibodies that were used to detect specific indicated proteins in Fig. 1C are listed in SI Appendix, Table S6.
# T4 sequence (P53350 345-603): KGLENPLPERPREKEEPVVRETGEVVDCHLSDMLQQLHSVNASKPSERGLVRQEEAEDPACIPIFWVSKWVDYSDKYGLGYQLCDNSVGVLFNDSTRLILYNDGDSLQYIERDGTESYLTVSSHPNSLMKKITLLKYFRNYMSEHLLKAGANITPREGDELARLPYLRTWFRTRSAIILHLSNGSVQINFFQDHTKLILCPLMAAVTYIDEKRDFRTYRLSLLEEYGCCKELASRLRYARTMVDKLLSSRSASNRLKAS
# T2 sequence (P53350 whole entry): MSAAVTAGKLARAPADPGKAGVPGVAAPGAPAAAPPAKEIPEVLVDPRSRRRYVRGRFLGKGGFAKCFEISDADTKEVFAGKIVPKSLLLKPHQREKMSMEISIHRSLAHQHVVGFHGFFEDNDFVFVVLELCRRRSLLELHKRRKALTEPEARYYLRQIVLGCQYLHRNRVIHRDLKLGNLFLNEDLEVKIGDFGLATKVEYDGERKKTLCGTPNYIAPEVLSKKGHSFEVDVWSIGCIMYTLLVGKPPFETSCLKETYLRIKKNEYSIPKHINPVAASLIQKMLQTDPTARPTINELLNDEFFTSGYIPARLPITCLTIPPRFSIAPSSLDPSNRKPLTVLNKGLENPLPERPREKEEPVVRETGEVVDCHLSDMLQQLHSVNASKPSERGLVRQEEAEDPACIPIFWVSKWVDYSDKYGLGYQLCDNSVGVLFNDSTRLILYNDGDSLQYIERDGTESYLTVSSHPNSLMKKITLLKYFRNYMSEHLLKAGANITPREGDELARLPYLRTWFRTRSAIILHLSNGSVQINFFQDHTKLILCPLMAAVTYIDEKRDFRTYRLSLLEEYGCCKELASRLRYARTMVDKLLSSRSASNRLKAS
# T3 sequence (Q9NYY3 355-685 S652F): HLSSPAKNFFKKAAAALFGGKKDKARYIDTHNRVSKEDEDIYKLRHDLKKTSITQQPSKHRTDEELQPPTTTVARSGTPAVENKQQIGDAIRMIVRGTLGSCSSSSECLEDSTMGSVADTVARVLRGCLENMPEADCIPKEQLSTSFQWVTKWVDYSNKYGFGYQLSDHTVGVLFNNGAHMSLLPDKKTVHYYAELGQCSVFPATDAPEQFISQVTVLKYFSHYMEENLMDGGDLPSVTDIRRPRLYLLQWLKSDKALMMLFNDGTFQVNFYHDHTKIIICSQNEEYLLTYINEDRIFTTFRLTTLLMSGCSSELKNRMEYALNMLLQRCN
SMILES,PBD2 IC50 ± SD (Plk2 PBD (PBD2)),IC50 (full-length Plk1),Inhibition in FP assay (in words) (PBD2 S652F mutant),"IC50 (Plk1 PBD (PBD1); FP, bacterially expressed purified PBD, FITC-ligand 15 nM, PBD at EC85, read-out: PBD1 IC50 ± SD)",Inhibition of FITC-phosphopeptide binding (in words) (Plk1 PBD (PBD1); PBD1 WT at EC85),Plk1 signals localized at centrosomes and kinetochores (in words) [1],Phosphoproteins coprecipitating with Flag-Plk1 F559D (in words) [2]
O=c1c2sc(Cl)cc2n2c(=S)[nH]nc2n1CC1CC1 [Allopole-A],N. S.,1400 nM,not inhibitable,2.5 nM and 2.53 nM,effectively inhibited PBD1 WT,,
Cn1cnc([N+](=O)[O-])c1Sc1nnc2n(CC3CC3)c(=O)c3sc(Cl)cc3n12 [Allopole],,,,,,greatly diminished,"coimmunoprecipitated p-PBIP1, p-Bub1, p-BubR1, and p-Cdc25C effectively"
